Assay results reported in patent US10568324B2, “Agricultural and horticultural material, and plant cultivation method which promote coloring in fruit” (AJINOMOTO CO., INC., priority 2015, dated 2020).
Converted amounts (≈) assume the structure as drawn. Like-named read-outs stand apart in the source and are kept apart here.

What was measured:
[1] = system: grape cultured cells (VR calluses); experiment: Anthocyanin content in grape calluses treated with various amino acids (Reference Example 1(1)); type: cell-based, Vitis vinifera L.; conditions: 5 days
Method: Cells derived from a European grape cell line (Vitis vinifera L.; RIKEN BioResource Center; VR, management number RPC00003) were subcultured on MS agar medium. The subcultured VR calluses (i.e. cell clusters) were each transferred to MS agar medium containing 5 mM of each amino acid solution, and cultured. As a positive control, 100 μM abscisic acid (ABA) was added, which is a known color-promotor. Five days after the transfer, each callus was freeze-dried and ground, and anthocyanin was extracted with a 1% HCl solution in MeOH.

[2] = cited from earlier work
[3] = system: Cabernet Sauvignon grape plants; experiment: Effect of isoleucine on coloring of grape berries, sprinkled on bunches in test farm (Reference Example 1(2)); type: in vivo; conditions: 10 mM Ile + 0.1% Applauch BI sprinkled on bunches in veraison period; FIG. 1
Method: Cabernet Sauvignon grape plants that had been cultivated in a test farm and had entered into the veraison period were chosen for this experiment. Eight bunches of grapes on each of two grape plants, 16 bunches of grapes in total, were selected for each test group. On each bunch of grapes, about 6.25 mL of 0.1% Applauch BI (Kao, control), 1 g/L of abscisic acid (ABA)+0.1% Applauch BI (positive control), or 10 mM isoleucine (Ile)+0.1% Applauch BI was sprinkled. As samples, 4 bunches for each test group were collected 4 times. Anthocyanin present in the pericarps was extracted with a mixed solution of water and acetone (1:2), and the anthocyanin content was measured in the same manner as described above.

Compound: C[C@H](N)C(=O)O [Ala]
- Relative content of anthocyanin ([1]; 5 mM amino acid in MS agar medium, relative to positive control 100 μM ABA taken as 100%): 7%

Compound: N[C@@H](Cc1ccccc1)C(=O)O [Phe, phenylalanine]
- solubility in water ([2]; 20° C.): 27 mg/mL (≈ 163 mM)
- solubility in water ([2]; 50° C.): 40 mg/mL (≈ 242 mM)
- solubility in water [2]: about 0.2 M

Compound: CC[C@H](C)[C@H](N)C(=O)O [Ile, isoleucine]
- solubility in water [2]: about 0.3 M
- anthocyanin content of callus (in words) ([1]; 5 mM amino acid, compared among the amino acids of Table 1): highest anthocyanin content
- anthocyanin content in pericarps [3]: increased

Compound: CC(C)C[C@H](N)C(=O)O [Leu, leucine]
- solubility in water ([2]; 20° C.): 24 mg/mL (≈ 183 mM)
- solubility in water ([2]; 50° C.): 29 mg/mL (≈ 221 mM)
- solubility in water [2]: about 0.2 M
